# Experimental data as given in patent publication US20100168434A1, “INHIBITION OF POLYMERISATION” (priority 2005, published 2010).
# Legend:
# [1] = Continuous stirred tank reactor (CSTR) styrene polymerisation inhibition; details: CSTR 110° C., inhibitor 75 ppm; for Polymer level at steady state: nitrogen sparging
# Experimental: The evaluation of the efficacy of a selection of nitroxide compounds of the invention was carried out using a continuous stirred tank reactor (CSTR) which mimicked the re-boiler of a styrene distillation column. […] Data gathered after this point was averaged to give the steady state polymer level. Nitrogen sparging to remove oxygen gas was carried out at a measured rate of 200 ml/minute. Apart from the inhibitors, the only variable was the inherent variation in the rate of thermal initiation of styrene polymerisation.
# [2] = Tube inhibition time, 2-ethylhexyl acrylate monomer; details: 145° C., 5 ppm inhibitor, time to appearance of insoluble polymer
# Experimental: (§1) The efficacy of various inhibitors was evaluated with respect to the monomers vinyl acetate, acrylonitrile, 2-ethylhexyl acrylate and isoprene. The efficacy of each inhibitor was determined by heating in pure monomer or a solution of monomer in a suitable solvent(s) for a set time and at a known temperature. The storage inhibitor was removed from each monomer by distillation or treatment with neutral silica. In each of the tables below, the amount of polymer generated is expressed as % w/w of the monomer.
# Similarly, tubes containing 5 ppm inhibitor in 2-ethylhexyl acrylate were heated at 145° C. and the results expressed as inhibition time (i.e. the time to appearance of insoluble polymer). Data were generated in nitrogen and in the presence of air.
# [3] = Sealed-tube polymerisation inhibition, vinyl acetate monomer; details: degassed with nitrogen, 160° C. for 48 hours, inhibitor 25 ppm
# Experimental: as §1
# In this case, the tubes and solution were degassed with nitrogen prior to sealing and heating at 160° C. for 48 hours.
# [4] = Tube polymerisation inhibition, acrylonitrile monomer; details: 120° C. for 7 days, air not removed, inhibitor 10 ppm
# Experimental: as §1
# Similarly, tubes containing acrylonitrile and various inhibitors were heated at 120° C. for 7 days. The air was not removed from these solutions prior to heating.
# [5] = Tube polymerisation inhibition, isoprene monomer; details: 100 ppm inhibitor, 160° C. for 1 hr
# Experimental: as §1
# Similarly tubes containing 100 ppm inhibitor in a solution of Isoprene in dimethylformamide containing 1 or 3% furfural were heated at 160° C. for 1 hr. […] The results are expressed as ppm insoluble polymer.
# [6] = Solubility in water and toluene (saturated solutions, amount dissolved)
# [7] = Solubility of inhibitors/retarders in styrene with and without 4-butoxy-TEMPO; details: in 4-butoxy-TEMPO plus styrene, 20° C.
# Experimental: Saturated solutions of the inhibitors/retarders phenothiazine and 4-methoxyphenol were prepared in 4-butoxy-TEMPO. These saturated solutions were then added to styrene so that the concentration of each inhibitor/retarder was above the solubility limit for that material in styrene alone.
compound,measurement,setting,value
"2,2,6,6-tetramethylpiperidine-1-oxide [TEMPO]",Polymer level at steady state,[1],213 ppm
"4-butoxy-2,2,6,6-tetramethylpiperidine-1-oxide [4-butoxy-TEMPO]",Polymer level at steady state,[1],341 ppm
same,Inhibition time in air,[2]; air,40 min
same,Inhibition time in nitrogen,[2]; nitrogen,350 min
same,Polymer,[3],19 % w/w
same,Polymer,[4],0.06 % w/w
same,"Insoluble polymer, 1% Furfural",[5]; isoprene in dimethylformamide with 1% furfural,2.2 ppm
same,"Insoluble polymer, 3% Furfural",[5]; isoprene in dimethylformamide with 3% furfural,5.3 ppm
"4-hydroxy-2,2,6,6-tetramethylpiperidine-1-oxide [4-hydroxy-TEMPO]",Polymer level at steady state,[1],180 ppm
same,Polymer,[4],0.18 % w/w
"4-oxo-2,2,6,6-tetramethylpiperidine-1-oxide [4-oxo-TEMPO]",Solubility in toluene,[6]; saturated solution in toluene,>80 % wt/wt
same,Solubility in water,[6]; saturated solution in water,22.5 % wt/wt
C=CCOC1CC(C)(C)N([O])C(C)(C)C1 [4-allyloxy-TEMPO],Polymer level (at 120 mins),[1]; at 120 mins (not steady state),15199 (at 120 mins) ppm
COC1CC(C)(C)N([O])C(C)(C)C1 [4-methoxy-TEMPO],Polymer level at steady state,[1],172 ppm
"c1ccc2c(c1)Nc1ccccc1S2 [Phenothiazine, phenothiazine]","Soluble amount, Wt % test material (with respect to styrene)",[7],7.0 Wt %
same,Polymer,[3],35 % w/w
